In patent US7932246B2, “Histone deacetylase inhibitors” (Chroma Therapeutics Ltd., priority 2005, dated 2011):

Tests used:
[1] = target: histone deacetylase activity (HeLa nuclear extract); assay: HDAC fluorescent activity assay (Biomol, Fluor de Lys substrate); type: biochemical; conditions: IC50 range
Method in brief: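 HeLa nuclear extract served as the deacetylase source for the acetyl-lysine Fluor de Lys substrate, with or without inhibitor. Developer converts deacetylated substrate to a fluorophore.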

HeLa cells = assay: HeLa cell inhibition assay (SRB cell viability); type: cell-based; conditions: 72 h, IC50 range
Method in brief: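 Log-phase cells seeded at 1000 cells/well, grown 24 h, then exposed to compound (final 20 μM top concentration) for 72 h. Viability by sulphorhodamine B staining, % inhibition relative to DMSO control. IC50 from 8-point sigmoidal variable-slope fit.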

U937 = U937 cell inhibition assay (WST-1 cell viability); type: cell-based; conditions: U937 cells, 72-96 h, WST-1 assay, IC50 range
Method in brief: (§1)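 Cells seeded at 1000-2000/well, grown 24 h, then treated for 72-96 h with 8 concentrations (top 10 μM, 3-fold, 6 replicates). Viability by WST-1; inhibition relative to DMSO, IC50 by sigmoidal variable-slope fit.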

HUT = HUT cell inhibition assay (WST-1 cell viability); type: cell-based; conditions: HUT cells, 72-96 h, WST-1 assay, IC50 range
Method in brief: as §1

| IC50 [1] | IC50 (HeLa cells; Homo sapiens, HeLa) | IC50 (U937; Homo sapiens, U-937) | IC50 (HeLa cells) | IC50 (U937) | SMILES | IC50 (HUT) |
| --- | --- | --- | --- | --- | --- | --- |
| < 100 nM | < 330 nM | < 330 nM | – | – | O=C(NO)c1cnc(N2CC3C(C2)C3NCc2cc(C(F)(F)F)cc(C(F)(F)F)c2)nc1 (stereo not drawn) [Example 35, N-Hydroxy 2-{6-[(3,5-bistrifluoromethylbenzyl)amino]-3-azabicyclo[3.1.0]hex-3-yl}pyrimidine-5-carboxamide] | < 330 nM |
| < 100 nM | – | – | < 330 nM | < 330 nM | COc1ccc(CNC2C3CN(c4ncc(C(=O)NO)cn4)CC32)cc1 (stereo not drawn) [Example 26, N-Hydroxy 2-{6-[(4-methoxybenzyl)amino]-3-azabicyclo[3.1.0]hex-3-yl}pyrimidine-5-carboxamide] | < 330 nM |
| < 100 nM | < 330 nM | < 330 nM | – | – | O=C(NO)c1cnc(N2CC3C(C2)C3N(CCN2CCOCC2)S(=O)(=O)c2ccc3ccccc3c2)nc1 (stereo not drawn) [Example 51] | < 330 nM |
| < 100 nM | 331 to 3300 nM | 331 to 3300 nM | – | – | O=C(NO)c1ccc(N2CC3CN(Cc4ccc5ccccc5c4)CC3C2)nc1 (stereo not drawn) [Example 87] | 331 to 3300 nM |
| < 100 nM | < 330 nM | 331 to 3300 nM | – | – | COc1ccc2c(c1)CCC2N1CC2CN(c3ncc(C(=O)NO)cn3)CC2C1 (stereo not drawn) [Example 80, N-Hydroxy 2-[5-(5-methoxyindan-1-yl)hexahydropyrrolo[3,4-c]pyrrol-2(1H)-yl]pyrimidine-5-carboxamide] | < 330 nM |
| < 100 nM | > 3300 nM | 331 to 3300 nM | – | – | O=C(NO)c1cnc(N2CC3CN(S(=O)(=O)c4cc(C(F)(F)F)cc(C(F)(F)F)c4)CC3C2)nc1 (stereo not drawn) [Example 81, N-hydroxy 2-[5-(3,5-bistrifluoromethylbenzenesulfonyl)hexahydropyrrolo[3,4-c]pyrrol-2(1H)-yl]-pyrimidine-5-carboxamide] | 331 to 3300 nM |
| < 100 nM | < 330 nM | < 330 nM | – | – | O=C(NO)c1cnc(N2CC3C(C2)C3NCc2ccc(-c3ccccc3)cc2)nc1 (stereo not drawn) [Example 27, N-Hydroxy 2-{6-[(biphenyl-4-ylmethyl)-amino]-3-aza-bicyclo[3.1.0]hex-3-yl}pyrimidine-5-carboxamide] | < 330 nM |
| < 100 nM | 331 to 3300 nM | 331 to 3300 nM | – | – | O=C(NO)c1cnc(N2CC3C(C2)C3N(CCN2CCCC2=O)S(=O)(=O)c2ccc3ccccc3c2)nc1 (stereo not drawn) [Example 48, N-Hydroxy 2-(6-{(naphthalene-2-sulfonyl)-[2-(2-oxopyrrolidin-1-yl)ethyl]amino}-3-aza-bicyclo[3.1.0]hex-3-yl)pyrimidine-5-carboxamide] | 331 to 3300 nM |
| < 100 nM | 331 to 3300 nM | 331 to 3300 nM | – | – | O=C(NO)c1cnc(N2CC3C(C2)C3N2Cc3ccccc3CC2=O)nc1 (stereo not drawn) [Example 65, N-Hydroxy 2-[6-(3-oxo-3,4-dihydroisoquinolin-2(1H)-yl)-3-azabicyclo[3.1.0]hex-3-yl]pyrimidine-5-carboxamide] | 331 to 3300 nM |
| < 100 nM | 331 to 3300 nM | < 330 nM | – | – | O=C(NO)c1cnc(N2CC3CN(Cc4cc(F)cc(F)c4)CC3C2)nc1 (stereo not drawn) [Example 83, N-Hydroxy 2-[5-(3,5-difluorobenzyl)hexahydropyrrolo[3,4-c]pyrrol-2(1H)-yl]pyrimidine-5-carboxamide] | < 330 nM |
| < 100 nM | < 330 nM | < 330 nM | – | – | O=C(NO)c1cnc(N2CC3C(C2)C3N(CCN2CCCCC2)S(=O)(=O)c2ccc3ccccc3c2)nc1 (stereo not drawn) [Example 53, N-Hydroxy 2-{6-[(naphthalene-2-sulfonyl)-(2-piperidin-1-ylethyl)amino]-3-azabicyclo[3.1.0]hex-3-yl}pyrimidine-5-carboxamide] | < 330 nM |
| < 100 nM | > 3300 nM | 331 to 3300 nM | – | – | O=C(NO)c1cnc(N2CC3CN(C(=O)CCCOc4ccccc4)CC3C2)nc1 (stereo not drawn) [Example 78, N-Hydroxy 2-[5-(4-phenoxybutyryl)hexahydropyrrolo[3,4-c]pyrrol-2(1H)-yl]pyrimidine-5-carboxamide] | 331 to 3300 nM |
| < 100 nM | 331 to 3300 nM | 331 to 3300 nM | – | – | O=C(CCCCc1ccccc1)NC1C2CN(c3ncc(C(=O)NO)cn3)CC21 (stereo not drawn) [Example 7, N-Hydroxy 2-[6-(5-phenylpentanoylamino)-3-azabicyclo[3.1.0]hex-3-yl]pyrimidine-5-carboxamide] | 331 to 3300 nM |
| < 100 nM | < 330 nM | < 330 nM | – | – | O=C(NO)c1cnc(N2CC3C(C2)C3NCc2ccc(Oc3ccccc3)cc2)nc1 (stereo not drawn) [Example 22, N-Hydroxy 2-[6-(4-phenoxybenzylamino)-3-azabicyclo[3.1.0]hex-3-yl]pyrimidine-5-carboxamide] | < 330 nM |
| < 100 nM | 331 to 3300 nM | 331 to 3300 nM | – | – | O=C(NO)c1cnc(N2CC3CN(S(=O)(=O)c4ccc5ccccc5c4)CC3C2)nc1 (stereo not drawn) [Example 76, N-Hydroxy 2-[5-(naphthalene-2-sulfonyl)hexahydro-pyrrolo[3,4-c]pyrrol-2(1H)-yl]pyrimidine-5-carboxamide] | < 330 nM |
| < 100 nM | 331 to 3300 nM | 331 to 3300 nM | – | – | O=C(NO)c1cnc(N2CC3C(C2)C3NC(=O)c2ccc3ccccc3c2)nc1 (stereo not drawn) [Example 5, N-Hydroxy 2-{6-[(naphthalene-2-carbonyl)amino]-3-aza-bicyclo[3.1.0]hex-3-yl}pyrimidine-5-carboxamide] | < 330 nM |
| < 100 nM | 331 to 3300 nM | 331 to 3300 nM | – | – | O=C(NO)c1cnc(N2CC3C(CNCc4ccc5ccccc5n4)C3C2)nc1 (stereo not drawn) [Example 74, N-Hydroxy 2-(6-{[(quinolin-2-ylmethyl)amino]methyl}-3-azabicyclo[3.1.0]hex-3-yl)pyrimidine-5-carboxamide] | < 330 nM |
| < 100 nM | < 330 nM | < 330 nM | – | – | O=C(NO)c1cnc(N2CC3C(C2)C3N(CCN2CCCC2)S(=O)(=O)c2ccc3ccccc3c2)nc1 (stereo not drawn) [Example 46, N-Hydroxy 2-{6-[(naphthalene-2-sulfonyl)-(2-pyrrolidin-1-yl-ethyl)amino]-3-azabicyclo[3.1.0]hex-3-yl}pyrimidine-5-carboxamide] | < 330 nM |
| < 100 nM | > 3300 nM | 331 to 3300 nM | – | – | O=C(NO)c1cnc(N2CC3C(C2)C3N(CCN2CCCC2=O)S(=O)(=O)c2ccc(OC(F)(F)F)cc2)nc1 (stereo not drawn) [Example 55, N-Hydroxy 2-{6-[[2-(2-oxopyrrolidin-1-yl)ethyl]-(4-trifluoromethoxybenzenesulfonyl)amino]-3-aza-bicyclo[3.1.0]hex-3-yl}pyrimidine-5-carboxamide] | 331 to 3300 nM |
| < 100 nM | 331 to 3300 nM | < 330 nM | – | – | O=C(NO)c1cnc(N2CC3C(C2)C3NCc2ccc(OC(F)(F)F)cc2)nc1 (stereo not drawn) [Example 34, N-Hydroxy 2-{6-[(4-trifluoromethoxybenzyl)amino]-3-azabicyclo[3.1.0]hex-3-yl}pyrimidine-5-carboxamide] | < 330 nM |
| < 100 nM | < 330 nM | < 330 nM | – | – | O=C(NO)c1cnc(N2CC3C(C2)C3NCc2cccc(-c3ccccc3)c2)nc1 (stereo not drawn) [Example 37, N-Hydroxy 2-{6-[(biphenyl-3-ylmethyl)-amino]-3-aza-bicyclo[3.1.0]hex-3-yl}pyrimidine-5-carboxamide] | < 330 nM |
| < 100 nM | 331 to 3300 nM | 331 to 3300 nM | – | – | Cc1nccn1CCN(C1C2CN(c3ncc(C(=O)NO)cn3)CC21)S(=O)(=O)c1ccc2ccccc2c1 (stereo not drawn) [Example 47, N-Hydroxy 2-{6-[[2-(2-methylimidazol-1-yl)ethyl](naphthalene-2-sulfonyl)amino]-3-azabicyclo[3.1.0]hex-3-yl}pyrimidine-5-carboxamide] | 331 to 3300 nM |
| < 100 nM | 331 to 3300 nM | 331 to 3300 nM | – | – | O=C(NO)c1cnc(N2CC3C(C2)C3NC(=O)c2ccc3occc3c2)nc1 (stereo not drawn) [Example 16, N-Hydroxy 2-{6-[(1-benzofuran-5-ylcarbonyl)amino]-3-azabicyclo[3.1.0]hex-3-yl}pyrimidine-5-carboxamide] | < 330 nM |
| < 100 nM | < 330 nM | < 330 nM | – | – | O=C(NO)c1cnc(N2CC3C(C2)C3NCc2ccc3cc(F)ccc3n2)nc1 (stereo not drawn) [Example 44, N-Hydroxy 2-(6-{[(6-fluoroquinolin-2-yl)methyl]amino}-3-azabicyclo[3.1.0]hex-3-yl)pyrimidine-5-carboxamide] | < 330 nM |
| < 100 nM | 331 to 3300 nM | < 330 nM | – | – | O=C(NO)c1cnc(N2CC3C(C2)C3NCc2ccc3ccccc3c2)nc1 (stereo not drawn) [Example 20, N-Hydroxy 2-{6-[(2-naphthylmethyl)amino]-3-azabicyclo[3.1.0]hex-3-yl}pyrimidine-5-carboxamide] | < 330 nM |
| < 100 nM | 331 to 3300 nM | 331 to 3300 nM | – | – | CC(C(=O)NC1C2CN(c3ncc(C(=O)NO)cn3)CC21)c1ccccc1 (stereo not drawn) [Example 10, N-Hydroxy 2-{6-[(2-phenylpropanoyl)amino]-3-azabicyclo[3.1.0]hex-3-yl}pyrimidine-5-carboxamide] | 331 to 3300 nM |

| SMILES | IC50 [1] | IC50 (HeLa cells; Homo sapiens, HeLa) | IC50 (U937; Homo sapiens, U-937) | IC50 (HeLa cells) | IC50 (U937) | IC50 (HUT) |
| --- | --- | --- | --- | --- | --- | --- |
| O=C(NO)c1cnc(N2CC3C(C2)C3N2CCCCC2)nc1 (stereo not drawn) [Example 63, N-Hydroxy 2-(6-piperidin-1-yl-3-azabicyclo[3.1.0]hex-3-yl)pyrimidine-5-carboxamide] | 101 to 1000 nM | > 3300 nM | > 3300 nM | – | – | 331 to 3300 nM |
